Reference: ChEMBL document CHEMBL4507282, “Data for DCP probe BI-1950” (2021)

Key:
[1] = target: Leukocyte tyrosine kinase receptor (Homo sapiens) (UniProt P29376); conditions: Compound concentration 1000.0 nM
[2] = target: Serine/threonine-protein kinase SIK1 (Homo sapiens) (UniProt P57059); conditions: Compound concentration 1000.0 nM
[3] = target: SRSF protein kinase 1 (Homo sapiens) (UniProt Q96SB4); conditions: Compound concentration 1000.0 nM
[4] = target: Serine/threonine-protein kinase 24 (Homo sapiens) (UniProt Q9Y6E0); conditions: Compound concentration 1000.0 nM
[5] = tested on: Receptor-type tyrosine-protein kinase FLT3 (Homo sapiens), P36888 [UNDEFINED MUTATION]; conditions: Compound concentration 1000.0 nM
[6] = target: Ribosomal protein S6 kinase alpha-5 (Homo sapiens) (UniProt O75582); conditions: Compound concentration 1000.0 nM
[7] = target: Phosphatidylinositol 4,5-bisphosphate 3-kinase catalytic subunit delta isoform (Homo sapiens) (UniProt O00329); conditions: Compound concentration 1000.0 nM
[8] = target: Serine/threonine-protein kinase NIM1 (Homo sapiens) (UniProt Q8IY84); conditions: Compound concentration 1000.0 nM
Chain of Serine/threonine-protein kinase NIM1 (Homo sapiens) (Q8IY84 whole entry): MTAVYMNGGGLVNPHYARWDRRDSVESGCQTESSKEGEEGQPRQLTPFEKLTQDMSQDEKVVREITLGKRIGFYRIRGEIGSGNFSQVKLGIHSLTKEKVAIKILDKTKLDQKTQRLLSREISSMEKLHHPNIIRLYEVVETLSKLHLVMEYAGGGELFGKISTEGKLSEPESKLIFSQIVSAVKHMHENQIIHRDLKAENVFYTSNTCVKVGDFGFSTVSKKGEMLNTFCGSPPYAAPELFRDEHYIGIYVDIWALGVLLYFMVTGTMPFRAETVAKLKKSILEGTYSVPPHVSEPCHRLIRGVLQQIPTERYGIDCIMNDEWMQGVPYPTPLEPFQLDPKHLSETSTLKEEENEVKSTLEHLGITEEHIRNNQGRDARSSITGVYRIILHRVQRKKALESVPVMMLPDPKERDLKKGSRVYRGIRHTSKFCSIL

[9] = target: Serine/threonine-protein kinase D2 (Homo sapiens) (UniProt Q9BZL6); conditions: Compound concentration 1000.0 nM
[10] = target: Tyrosine-protein kinase Mer (Homo sapiens) (UniProt Q12866); conditions: Compound concentration 1000.0 nM
Chain of Tyrosine-protein kinase Mer (Homo sapiens) (Q12866 whole entry): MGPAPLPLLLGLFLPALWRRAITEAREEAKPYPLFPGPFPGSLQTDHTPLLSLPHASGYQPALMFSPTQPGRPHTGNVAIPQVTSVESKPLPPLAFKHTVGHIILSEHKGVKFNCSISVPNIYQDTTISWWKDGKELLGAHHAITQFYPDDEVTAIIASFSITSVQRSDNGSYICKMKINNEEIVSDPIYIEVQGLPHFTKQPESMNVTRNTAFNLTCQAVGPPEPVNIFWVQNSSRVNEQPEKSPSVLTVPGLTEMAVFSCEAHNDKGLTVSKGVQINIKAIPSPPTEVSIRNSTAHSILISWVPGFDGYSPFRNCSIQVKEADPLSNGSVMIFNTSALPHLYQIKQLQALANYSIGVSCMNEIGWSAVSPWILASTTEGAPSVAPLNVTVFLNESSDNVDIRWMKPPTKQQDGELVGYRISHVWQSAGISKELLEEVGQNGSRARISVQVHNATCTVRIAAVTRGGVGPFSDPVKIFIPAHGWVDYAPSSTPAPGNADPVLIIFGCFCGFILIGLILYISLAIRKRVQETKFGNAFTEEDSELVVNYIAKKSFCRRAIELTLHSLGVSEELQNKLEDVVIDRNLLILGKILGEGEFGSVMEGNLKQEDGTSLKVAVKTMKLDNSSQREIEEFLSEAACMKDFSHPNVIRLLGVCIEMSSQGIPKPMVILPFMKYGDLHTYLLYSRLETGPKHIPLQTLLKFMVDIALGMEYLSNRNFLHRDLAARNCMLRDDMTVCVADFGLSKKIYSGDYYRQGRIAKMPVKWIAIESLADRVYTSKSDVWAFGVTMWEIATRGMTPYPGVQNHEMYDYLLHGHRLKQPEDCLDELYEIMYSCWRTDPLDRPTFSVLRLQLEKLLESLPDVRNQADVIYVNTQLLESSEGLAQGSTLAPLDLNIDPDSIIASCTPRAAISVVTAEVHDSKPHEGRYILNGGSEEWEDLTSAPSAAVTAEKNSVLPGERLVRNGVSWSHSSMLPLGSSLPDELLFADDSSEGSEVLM

[11] = target: Vascular endothelial growth factor receptor 2 (Homo sapiens) (UniProt P35968); conditions: Compound concentration 1000.0 nM
Chain of Vascular endothelial growth factor receptor 2 (Homo sapiens) (P35968 whole entry): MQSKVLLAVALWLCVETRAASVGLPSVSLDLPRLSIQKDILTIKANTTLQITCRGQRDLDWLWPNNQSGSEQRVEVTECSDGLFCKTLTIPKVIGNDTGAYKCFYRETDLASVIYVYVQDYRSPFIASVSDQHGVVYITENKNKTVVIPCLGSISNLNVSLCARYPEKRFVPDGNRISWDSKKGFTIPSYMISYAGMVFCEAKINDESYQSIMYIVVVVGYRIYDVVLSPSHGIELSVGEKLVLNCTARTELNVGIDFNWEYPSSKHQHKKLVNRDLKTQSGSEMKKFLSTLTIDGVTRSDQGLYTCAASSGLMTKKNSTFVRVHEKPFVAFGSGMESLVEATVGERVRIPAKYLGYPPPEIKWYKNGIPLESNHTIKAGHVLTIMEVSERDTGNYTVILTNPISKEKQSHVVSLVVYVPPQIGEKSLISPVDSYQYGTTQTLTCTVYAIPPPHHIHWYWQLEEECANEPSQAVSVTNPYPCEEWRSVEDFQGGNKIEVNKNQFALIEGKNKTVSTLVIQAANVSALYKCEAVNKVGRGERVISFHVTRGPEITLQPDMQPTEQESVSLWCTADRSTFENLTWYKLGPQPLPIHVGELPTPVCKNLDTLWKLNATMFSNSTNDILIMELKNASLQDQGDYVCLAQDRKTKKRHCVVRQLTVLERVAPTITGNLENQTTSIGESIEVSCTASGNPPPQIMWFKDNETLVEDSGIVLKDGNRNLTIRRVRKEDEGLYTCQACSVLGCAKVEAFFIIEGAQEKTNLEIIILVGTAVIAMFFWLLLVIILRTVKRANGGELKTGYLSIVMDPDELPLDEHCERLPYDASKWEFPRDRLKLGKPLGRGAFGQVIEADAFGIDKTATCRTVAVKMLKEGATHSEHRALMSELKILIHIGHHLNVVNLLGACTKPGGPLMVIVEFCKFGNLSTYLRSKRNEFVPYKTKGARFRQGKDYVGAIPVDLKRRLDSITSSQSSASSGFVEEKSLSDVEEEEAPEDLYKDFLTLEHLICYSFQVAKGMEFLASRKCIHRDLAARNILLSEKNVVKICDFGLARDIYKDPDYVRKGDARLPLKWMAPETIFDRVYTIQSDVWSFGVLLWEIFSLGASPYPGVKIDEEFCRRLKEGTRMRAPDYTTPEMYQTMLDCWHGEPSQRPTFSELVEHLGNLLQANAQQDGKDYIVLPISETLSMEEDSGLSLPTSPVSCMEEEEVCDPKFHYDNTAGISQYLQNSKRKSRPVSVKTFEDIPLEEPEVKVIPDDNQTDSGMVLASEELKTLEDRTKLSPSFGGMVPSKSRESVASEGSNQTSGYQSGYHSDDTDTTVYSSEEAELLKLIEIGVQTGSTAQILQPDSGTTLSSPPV

[12] = target: Rhodopsin kinase GRK1 (Homo sapiens) (UniProt Q15835); conditions: Compound concentration 1000.0 nM
[13] = target: Ribosomal protein S6 kinase alpha-2 (Homo sapiens) (UniProt Q15349); conditions: Compound concentration 1000.0 nM
[14] = target: Serine/threonine-protein kinase Nek5 (Homo sapiens) (UniProt Q6P3R8); conditions: Compound concentration 1000.0 nM
[15] = target: Tyrosine-protein kinase ABL2 (Homo sapiens) (UniProt P42684); conditions: Compound concentration 1000.0 nM
[16] = target: 5-hydroxytryptamine receptor 1E (Homo sapiens) (UniProt P28566); conditions: Compound concentration 10.0 uM
[17] = target: Megakaryocyte-associated tyrosine-protein kinase (Homo sapiens) (UniProt P42679); conditions: Compound concentration 1000.0 nM
[18] = target: Tyrosine-protein kinase receptor TYRO3 (Homo sapiens) (UniProt Q06418); conditions: Compound concentration 1000.0 nM
[19] = target: Serine/threonine-protein kinase MRCK beta (Homo sapiens) (UniProt Q9Y5S2); conditions: Compound concentration 1000.0 nM
[20] = target: Eukaryotic translation initiation factor 2-alpha kinase 1 (Homo sapiens) (UniProt Q9BQI3); conditions: Compound concentration 1000.0 nM
[21] = target: Casein kinase I isoform gamma-3 (Homo sapiens) (UniProt Q9Y6M4); conditions: Compound concentration 1000.0 nM
[22] = tested on: Tyrosine-protein kinase ABL1 (Homo sapiens), P00519 [Q252H]; conditions: Compound concentration 1000.0 nM
[23] = target: D(1B) dopamine receptor (Homo sapiens) (UniProt P21918); conditions: Compound concentration 10.0 uM
[24] = target: Cyclin-dependent kinase 14 (Homo sapiens) (UniProt O94921); conditions: Compound concentration 1000.0 nM
[25] = target: MAP kinase-interacting serine/threonine-protein kinase 1 (Homo sapiens) (UniProt Q9BUB5); conditions: Compound concentration 1000.0 nM
Chain of MAP kinase-interacting serine/threonine-protein kinase 1 (Homo sapiens) (Q9BUB5 whole entry, looked up): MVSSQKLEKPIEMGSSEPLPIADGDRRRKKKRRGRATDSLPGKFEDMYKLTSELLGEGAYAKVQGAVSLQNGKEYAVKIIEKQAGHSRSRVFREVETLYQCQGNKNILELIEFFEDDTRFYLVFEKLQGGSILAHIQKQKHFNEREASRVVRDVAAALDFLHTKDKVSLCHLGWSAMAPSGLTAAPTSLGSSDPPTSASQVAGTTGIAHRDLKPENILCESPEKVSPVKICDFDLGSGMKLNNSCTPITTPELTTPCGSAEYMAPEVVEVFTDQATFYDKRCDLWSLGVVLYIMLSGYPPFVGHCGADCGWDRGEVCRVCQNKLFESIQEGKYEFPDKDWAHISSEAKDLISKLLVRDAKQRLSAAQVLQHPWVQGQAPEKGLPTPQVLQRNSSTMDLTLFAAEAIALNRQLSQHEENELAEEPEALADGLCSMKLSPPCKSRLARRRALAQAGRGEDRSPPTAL

[26] = target: Serine/threonine-protein kinase Sgk2 (Homo sapiens) (UniProt Q9HBY8); conditions: Compound concentration 1000.0 nM
[27] = tested on: Phosphatidylinositol 4,5-bisphosphate 3-kinase catalytic subunit alpha isoform (Homo sapiens), P42336 [H1047Y]; conditions: Compound concentration 1000.0 nM
[28] = target: RAF proto-oncogene serine/threonine-protein kinase (Homo sapiens) (UniProt P04049); conditions: Compound concentration 1000.0 nM
[29] = tested on: Tyrosine-protein kinase ABL1 (Homo sapiens), P00519 [H396P]; conditions: Compound concentration 1000.0 nM
[30] = target: Transient receptor potential cation channel subfamily M member 6 (Homo sapiens) (UniProt Q9BX84); conditions: Compound concentration 1000.0 nM
[31] = target: Mitogen-activated protein kinase 7 (Homo sapiens) (UniProt Q13164); conditions: Compound concentration 1000.0 nM
[32] = target: Serine/threonine-protein kinase 32B (Homo sapiens) (UniProt Q9NY57); conditions: Compound concentration 1000.0 nM
[33] = tested on: Phosphatidylinositol 4,5-bisphosphate 3-kinase catalytic subunit alpha isoform (Homo sapiens), P42336 [E545A]; conditions: Compound concentration 1000.0 nM
[34] = target: Kappa-type opioid receptor (Homo sapiens) (UniProt P41145); conditions: Compound concentration 10.0 uM
[35] = target: High affinity nerve growth factor receptor (Homo sapiens) (UniProt P04629); conditions: Compound concentration 1000.0 nM
[36] = target: Myosin light chain kinase (Homo sapiens) (UniProt Q32MK0); conditions: Compound concentration 1000.0 nM
[37] = target: Serine/threonine-protein kinase RIO3 (Homo sapiens) (UniProt O14730); conditions: Compound concentration 1000.0 nM
[38] = tested on: Leucine-rich repeat serine/threonine-protein kinase 2 (Homo sapiens), Q5S007 [G2019S]; conditions: Compound concentration 1000.0 nM
[39] = target: Ribosomal protein S6 kinase alpha-3 (Homo sapiens) (UniProt P51812); conditions: Compound concentration 1000.0 nM
[40] = tested on: Mast/stem cell growth factor receptor Kit (Homo sapiens), P10721 [V559D,V654A]; conditions: Compound concentration 1000.0 nM
[41] = target: Serine/threonine-protein kinase DCLK3 (Homo sapiens) (UniProt Q9C098); conditions: Compound concentration 1000.0 nM
[42] = target: NUAK family SNF1-like kinase 1 (Homo sapiens) (UniProt O60285); conditions: Compound concentration 1000.0 nM
[43] = tested on: Phosphatidylinositol 4,5-bisphosphate 3-kinase catalytic subunit alpha isoform (Homo sapiens), P42336 [E545K]; conditions: Compound concentration 1000.0 nM
[44] = target: Myosin light chain kinase, smooth muscle (Homo sapiens) (UniProt Q15746); conditions: Compound concentration 1000.0 nM

Chain of Leukocyte tyrosine kinase receptor (Homo sapiens) (P29376 whole entry): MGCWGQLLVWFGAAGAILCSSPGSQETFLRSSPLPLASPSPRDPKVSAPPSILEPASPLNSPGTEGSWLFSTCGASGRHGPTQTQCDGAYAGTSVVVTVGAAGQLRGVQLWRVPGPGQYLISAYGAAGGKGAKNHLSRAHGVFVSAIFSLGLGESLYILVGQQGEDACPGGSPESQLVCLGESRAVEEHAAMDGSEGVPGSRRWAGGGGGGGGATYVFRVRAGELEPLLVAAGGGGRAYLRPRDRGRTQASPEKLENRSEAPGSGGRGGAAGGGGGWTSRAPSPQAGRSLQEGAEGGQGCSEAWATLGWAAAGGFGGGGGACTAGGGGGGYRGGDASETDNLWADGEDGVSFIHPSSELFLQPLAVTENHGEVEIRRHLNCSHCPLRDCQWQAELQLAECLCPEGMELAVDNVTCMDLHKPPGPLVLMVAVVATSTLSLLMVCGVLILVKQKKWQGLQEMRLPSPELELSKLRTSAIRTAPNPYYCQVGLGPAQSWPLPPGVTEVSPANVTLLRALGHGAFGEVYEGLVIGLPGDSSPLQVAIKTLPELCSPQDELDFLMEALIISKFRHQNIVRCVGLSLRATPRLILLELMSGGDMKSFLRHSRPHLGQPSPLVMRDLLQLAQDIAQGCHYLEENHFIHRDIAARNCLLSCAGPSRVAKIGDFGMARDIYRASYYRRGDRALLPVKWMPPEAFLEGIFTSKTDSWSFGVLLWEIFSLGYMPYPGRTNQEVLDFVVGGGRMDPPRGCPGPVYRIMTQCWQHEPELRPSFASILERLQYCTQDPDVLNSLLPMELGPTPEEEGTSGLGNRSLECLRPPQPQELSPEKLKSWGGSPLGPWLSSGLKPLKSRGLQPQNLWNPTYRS
Chain of Serine/threonine-protein kinase SIK1 (Homo sapiens) (P57059 whole entry): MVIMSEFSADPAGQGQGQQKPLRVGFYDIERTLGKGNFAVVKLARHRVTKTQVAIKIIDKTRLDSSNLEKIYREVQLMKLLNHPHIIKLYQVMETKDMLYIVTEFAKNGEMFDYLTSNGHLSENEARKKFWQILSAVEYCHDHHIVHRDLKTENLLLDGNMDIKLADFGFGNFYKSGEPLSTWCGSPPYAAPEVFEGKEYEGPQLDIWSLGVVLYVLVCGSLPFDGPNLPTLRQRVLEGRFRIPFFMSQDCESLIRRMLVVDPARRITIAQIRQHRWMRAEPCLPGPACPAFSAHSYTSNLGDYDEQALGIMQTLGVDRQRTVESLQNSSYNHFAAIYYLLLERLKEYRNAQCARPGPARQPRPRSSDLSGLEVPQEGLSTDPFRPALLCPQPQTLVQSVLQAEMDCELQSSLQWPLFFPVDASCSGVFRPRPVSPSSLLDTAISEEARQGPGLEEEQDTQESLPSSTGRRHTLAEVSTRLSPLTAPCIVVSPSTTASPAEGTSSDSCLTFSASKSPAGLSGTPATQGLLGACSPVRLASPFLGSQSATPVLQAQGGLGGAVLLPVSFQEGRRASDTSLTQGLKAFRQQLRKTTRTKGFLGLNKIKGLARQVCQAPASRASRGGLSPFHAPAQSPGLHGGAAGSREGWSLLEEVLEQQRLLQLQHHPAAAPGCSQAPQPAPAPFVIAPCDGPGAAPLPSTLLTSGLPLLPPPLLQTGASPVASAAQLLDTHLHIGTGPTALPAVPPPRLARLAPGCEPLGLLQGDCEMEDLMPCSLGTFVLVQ

C[C@@]1(Cc2ccc(C#N)cc2)C(=O)N(c2cc(Cl)cc(Cl)c2)c2ncc(C(=O)NC3(c4nc(C5CCC5)no4)CC3)n21 [BI 9446] gave a residual activity [1] of 100%, a residual activity [2] of 100% and a residual activity [3] of 94%. For the same compound, the residual activity [4] was 93%, the residual activity [5] was 100% and the residual activity [6] was 100%. For the same compound, the residual activity [7] was 73%, the residual activity [8] was 100% and the residual activity [9] was 100%. It also gave a residual activity [10] of 100%, a residual activity [11] of 100% and a residual activity [12] of 100%. For the same compound, the residual activity [13] was 100%, the residual activity [14] was 100% and the residual activity [15] was 78%. It also gave an inhibition [16] of 31.5%, a residual activity [17] of 100% and a residual activity [18] of 100%. The residual activity [19] was 100%, the residual activity [20] was 100% and the residual activity [21] was 100%. It also gave a residual activity [22] of 89%, an inhibition [23] of 7.21% and a residual activity [24] of 100%. It also gave a residual activity [25] of 100%, a residual activity [26] of 100% and a residual activity [27] of 100%. For the same compound, the residual activity [28] was 100%, the residual activity [29] was 100% and the residual activity [30] was 0%. It also gave a residual activity [31] of 100%, a residual activity [32] of 100% and a residual activity [33] of 100%. It also gave an inhibition [34] of 12.6%, a residual activity [35] of 100% and a residual activity [36] of 87%. For the same compound, the residual activity [37] was 100%, the residual activity [38] was 100% and the residual activity [39] was 100%. For the same compound, the residual activity [40] was 85%, the residual activity [41] was 88% and the residual activity [42] was 100%. For the same compound, the residual activity [43] was 94% and the residual activity [44] was 100%.
C[C@H](NC(=O)c1cnc2n1[C@](C)(Cc1ccc(C#N)cc1)C(=O)N2c1cc(Cl)c(F)c(Cl)c1)C(=O)NC1(c2ccccn2)CC1 [BI 1950] gave a residual activity [1] of 100%, a residual activity [2] of 100% and a residual activity [3] of 81%. The residual activity [4] was 100%, the residual activity [5] was 100% and the residual activity [6] was 96%. For the same compound, the residual activity [7] was 95%, the residual activity [8] was 100% and the residual activity [9] was 100%. The residual activity [10] was 99%, the residual activity [11] was 99% and the residual activity [12] was 100%. For the same compound, the residual activity [13] was 100%, the residual activity [14] was 100% and the residual activity [15] was 83%. For the same compound, the inhibition [16] was 17.7%, the residual activity [17] was 100% and the residual activity [18] was 100%. It also gave a residual activity [19] of 100%, a residual activity [20] of 93% and a residual activity [21] of 100%. It also gave a residual activity [22] of 90%, an inhibition [23] of 14% and a residual activity [24] of 100%. For the same compound, the residual activity [25] was 93%, the residual activity [26] was 94% and the residual activity [27] was 100%. For the same compound, the residual activity [28] was 100%, the residual activity [29] was 83% and the residual activity [30] was 100%. It also gave a residual activity [31] of 100%, a residual activity [32] of 80% and a residual activity [33] of 100%. For the same compound, the inhibition [34] was 9.67%, the residual activity [35] was 98% and the residual activity [36] was 100%. For the same compound, the residual activity [37] was 100%, the residual activity [38] was 100% and the residual activity [39] was 100%. The residual activity [40] was 100%, the residual activity [41] was 100% and the residual activity [42] was 99%. The residual activity [43] was 100% and the residual activity [44] was 100%.
